Experimental data: patent US20230372282A1, “METHOD FOR TREATEING OR […] OPTIC NEUROPATHY” (TZU CHI UNIVERSITY, priority 2022, published 2023)

Columns and labels:
rAION model [1] = experiment: Flash visual evoked potential (FVEP), P1-N2 amplitude after AION induction; format: in vivo, rat; conditions: 28 days after AION induction, BP 10 mg/kg i.p. 7 days; PBS group 13.70±5.59, sham 33.63±8.30
Method: (§1) Adult male Wistar rats of 4 to 6 weeks of age (weighing 100-125 g) were used in the animal model of ischemic optic neuropathy and were divided into three groups: the sham group, the group administered with PBS following ischemic optic neuropathy injury, and the group with ischemic optic neuropathy injury accompanied by intraperitoneal injection of BP at 10 mg/kg for 7 consecutive days. The rats were housed in an animal room having a 12-hour light/dark cycle (the light cycle time is from 7 a.m. to 7 p.m.) with temperature controlled at 23° C. and humidity controlled at 55%, and supplied with filtered sterilized water and general rodent feed. During the experiment, general anesthesia of rats was performed by intramuscular injection of ketamine at 100 mg/kg and xylazine at 10 mg/kg. […]
Twenty-eight days after AION induction, electrodes were implanted into the primary visual cortex (anteroposterior: −8 mm; dorsoventral: ±3 mm) and frontal cortex (anteroposterior: +1 mm), while a ground electrode was implanted in the tail. […] The general visual function was evaluated by P1-N2 amplitude. […]

CNPase = experiment: Immunohistochemistry of CNPase in the optic nerve (myelin integrity); format: in vivo, rat; conditions: rAION rats, BP 10 mg/kg i.p. 7 days; after AION induction 4.24±0.71, sham 11.06±2.60
Method: as §1
(§2) First, vertical-sections of the ON were blocked with 2% bovine serum albumin (BSA) containing 0.3% triton X-100 for 1 hour. […] Fluorescence photographs of the sections of the ON tissue were taken at 10× magnification and 20× magnification using the Zeiss LSM 900 confocal system. The 20× magnified image of ED1^+ cells was analyzed using ImageJ software for quantification of exogenous macrophages. […]

RGC layer = experiment: TUNEL assay of apoptotic cells in the RGC layer; format: in vivo, rat; conditions: rAION rats, BP 10 mg/kg i.p. 7 days; PBS group 11.2±2.8, sham 2.8±1.9
Method: as §1, with “mg/kg. Local anesthesia was performed by using 0.5% Alcaine, and mydriasis was performed by administering Mydrin-P. To sacrifice the rats, carbon dioxide at a filling rate of 5 L/min was injected so that the volume of carbon dioxide was 20% of that of the cage, thereby achieving the main goal of reducing animal suffering.” for “mg/kg.”
Apoptotic cells in the ganglion cell layer (GCL) were detected using TUNEL assay according to the manufacturer's protocol. TUNEL-positive cells were calculated manually based on at least 6 retinal sections per eyeball in three groups (n=6 for each group). […]

[2] = system: retinal ganglion cells (RGCs); experiment: Retrograde labeling of RGCs with FluoroGold: RGC density and survival after AION induction; format: in vivo, rat
Method: (§3) Adult male Wistar rats of 4 to 6 weeks of age (weighing 100-125 g) were used in the animal model of ischemic optic neuropathy and were divided into three groups: the sham group, the group administered with PBS following ischemic optic neuropathy injury, and the group with ischemic optic neuropathy injury accompanied by intraperitoneal injection of BP at 10 mg/kg for 7 consecutive days. The rats were housed in an animal room having a 12-hour light/dark cycle (the light cycle time is from 7 a.m. to 7 p.m.) with temperature controlled at 23° C. and humidity controlled at 55%, and supplied with filtered sterilized water and general rodent feed. During the experiment, general anesthesia of rats was performed by intramuscular injection of ketamine at 100 mg/kg and xylazine at 10 mg/kg. Local anesthesia was performed by using 0.5% Alcaine, and mydriasis was performed by administering Mydrin-P. To sacrifice the rats, carbon dioxide at a filling rate of 5 L/min was injected so that the volume of carbon dioxide was 20% of that of the cage, thereby achieving the main goal of reducing animal suffering.
(§4) Firstly, under local anesthesia, rats were administrated with Alcaine and Mydrin-P eye drops to induce mydriasis. Subsequently, the rats were intravenously injected with rose bengal (2.5 mM dissolved in PBS at pH 7.4) at 1 mL/kg, and immediately irradiated with 12 pulses (once per second) of argon green laser (wavelength: 532 nm, size: […], power: 80 mW) to excite various parts of the optic disc. In addition, the laser was focused on the optic disc by an ophthalmoscope. Then, Tobradex eye ointment was applied evenly to the rats' eyes. Finally, the physical health of the rats was taken care of daily until the end of the study.
Retrograde labeling was performed three weeks after the rats were AION induced. […] One week after labeling, the rats were sacrificed and the eyeballs were carefully removed from the […] and fixed in 10% formalin for 2 hours. The entire retina was placed flat on a slide and paired with a filter set (excitation filter: 350-400 nm; radiation filter: 515 nm) and observed for morphology under a fluorescence microscope. The region with a radius of 1 mm from the center of the retina is defined as the central region, and the region with a radius of 3 mm from the center is defined as the mid-peripheral region. Ten blocks (38,250 μm^2; 225 μm×170 μm) were randomly selected from the central region and the mid-peripheral region to estimate the density of RGCs to determine the survival rate of RGCs.
To investigate the effect of BP on RGC survival rates after AION induction, retrograde labeling was carried out using Fluorogold (FG). […]

NF-κB signaling pathway = experiment: Western blotting of retinal protein, NF-κB-related pathway; format: in vivo; conditions: rat retina, rAION, compared with AION+PBS group
Method: as §3, §4
The detailed process of Western blotting process was described in the inventors' previous articles Cell Death Dis. 2017, 8, e3172 and Nat. Med. 2015, 21, 677-687. The total protein of the rat retina was extracted with modified radio immunoprecipitation assay (RIPA) buffer, and the protein concentrations were analyzed using the bicinchoninic acid (BCA) protein assay kit. […] The protein signal on the membrane was detected using an enhanced chemiluminescence (ECL) kit. The signal strength of the bands was quantified using ImageJ software.
Previous studies have pointed out that the upregulation of reactive oxygen species (ROS) in ischemic injury induces inflammatory response through the IκBα-NF-κB signaling pathway. Here, protein expression of the NF-κB-related pathway was evaluated to investigate the molecular mechanisms involved in the protection of nerves by administration of BP. […]

ED1+ macrophages = experiment: Immunohistochemistry of ED1+ macrophage infiltration in the optic nerve; format: in vivo, rat; conditions: rAION rats, BP 10 mg/kg i.p. 7 days; PBS group 166.4±19.3, sham 8.7±4.8
Method: as §1, §2

rAION model [3] = experiment: Optical coherence tomography (OCT) imaging of optic nerve width and RNFL after AION induction; format: in vivo, rat; conditions: BP 10 mg/kg i.p.
Method: as §3, §4
On days 1, 3, 7, 14, and 28 after AION induction, the optic nerve width (ONW) and the coherence tomography image of the retinal nerve fiber layer (RNFL) were obtained using a Micron IV retinal microscope. The vertical resolution and horizontal resolution of the imaging system were set to be 1.8 μm and 3 μm, respectively, to provide a 3.2 mm field of view and 1.2 mm depth of field for the retina. The cornea was moistened with Methocel 2%. The Micron eyepiece was glued to be in direct contact with the eye. To allow vertical light penetration through the cornea, the retinal nerve fiber layer and the Bruch's membrane opening (ONW) were imaged with circular and linear scans, respectively, with an average of 50 frames per scan.
The optic nerve width (ONW) and retinal nerve fiber layer (RNFL) thickness were measured on days 1, 3, 7, 14, and 28 using optical coherence tomography (OCT) imaging in the sham group, PBS-treated group, and BP-treated group. As shown in FIG. 5A and FIG. 5B, after AION induction, optic disc swelling can clearly observed in the acute onset stage, and it was improved by administration of BP on days 3, 7 and 28 (311.95±23.21 μm vs. 469.58±29.35 μm, 259.35±33.73 μm vs. 329±25.73 μm, 273.71±23.22 μm vs. 300.73±26.41 μm, respectively). Compared with the PBS-treated group, BP was efficient in maintaining the area of the RNFL (0.089±0.0027 mm^2 vs. 0.08±0.0028 mm^2, 0.074±0.0089 mm^2 vs. 0.047±0.0042 mm^2 respectively) on days 14 and 28.

[4] = rodent model of NAION, BP 10 mg/kg i.p. 7 days

CCC/C=C1\OC(=O)c2ccccc21 [BP, n-butylidenephthalide]
FVEP P1 to N2 amplitude (rAION model [1]): 22.01±7.03 μV
expression of CNPase in the optic nerve (IHC signal) (CNPase): 7.20±1.22
TUNEL-positive cells in the RGC layer per high powered field (HPF) (RGC layer): 3.7±1.5
density of RGCs in the central retina ([2]; rAION Wistar rats, BP 10 mg/kg intraperitoneal for 7 consecutive days, FluoroGold labeling 3 weeks after induction, sacrifice 1 week later, PBS group 935±514, sham 2771±453): 2172±458 RGCs per mm^2
density of RGCs in the mid-peripheral retina ([2]; rAION Wistar rats, BP 10 mg/kg intraperitoneal for 7 consecutive days, PBS group 750±452, sham 2236±487): 1962±505 RGCs per mm^2
improvement of RGC survival rate in the central retina [2, 4]: 44.7%
improvement of RGC survival rate in the mid-peripheral retina [2, 4]: 54.2%
expression of IL-1β (NF-κB signaling pathway): reduced expression
expression of NLRP3 (NF-κB signaling pathway): reduced expression
phosphorylation of IκBα (phospho-IκBα expression level) (NF-κB signaling pathway): significantly inhibited phosphorylation
phosphorylation of NF-κB (phospho-NF-κB expression level) (NF-κB signaling pathway): significantly inhibited phosphorylation
ED1-positive cells in the optic nerve per high powered field (ED1+ macrophages): 80.1±28.9
optic nerve width (ONW) (rAION model [3]; day 3 after AION induction, vs. 469.58±29.35 PBS group): 311.95±23.21 μm
optic nerve width (ONW) (rAION model [3]; day 7 after AION induction, vs. 329±25.73 PBS group): 259.35±33.73 μm
area of the RNFL (rAION model [3]; day 14 after AION induction, vs. 0.08±0.0028 PBS group): 0.089±0.0027 mm^2
area of the RNFL (rAION model [3]; day 28 after AION induction, vs. 0.047±0.0042 PBS group): 0.074±0.0089 mm^2
optic nerve width (ONW) (rAION model [3]; day 28 after AION induction, vs. 300.73±26.41 PBS group): 273.71±23.22 μm
